Experimental data published in patent US20210177868A1, “NOVEL USE OF PHYTOSTENONE” (Daisankasei Co., Ltd., priority 2018, published 2021).

Columns and labels:
SD rats = assay: application of test substance onto dehaired abdominal skin of fattened SD rats for 2 weeks; weight of each fat measured; assay type: in vivo, rat; conditions: applied onto abdominal skin, 2 ml of 5 mg/ml ethanol solution daily for 2 weeks, n=3, p<0.05
Experimental: The abdomen of each fat rat was dehaired (20 mm square). Thereafter, 2 ml of a phytostenone-containing composition (30 mg/ml ethanol solution) used as a test substance, 2 ml of campest-5-en-3-one (5 mg/ml ethanol solution) used as a test substance, or 2 ml of an ethanol solution used as a control was applied gently with a cotton to individual rats divided into the groups (n=3 in each group). This operation was carried out continuously for 2 weeks. After termination of the application test, the rats were dissected, and liver fat, epididymal fat, perirenal fat, mesenteric fat, and subcutaneous fat were carefully recovered. Thereafter, the weight of each fat was measured.
Herein, in the present example, the significance test was carried out as follows. First, the mean value±standard error in each group was calculated, and a variance test was then carried out. In the case of equal variance, the significance test was carried out according to the t-test, and in the case of unequal variance, the significance test was carried out according to the Welch method.

[1] = orally administered, approximately 120 mg/day over 8 weeks; cited from earlier work

In the case of CC(C)[C@H](C)CC[C@@H](C)[C@H]1CC[C@H]2[C@@H]3CC=C4CC(=O)CC[C@]4(C)[C@H]3CC[C@]12C [campest-5-en-3-one], the “reduction of the amount of subcutaneous fat compared with the control (ethanol solution)” value (SD rats) is listed as “approximately 16%” and the “subcutaneous fat reduction percentage” value [1] is listed as 26%.
